Experimental data published in ChEMBL document CHEMBL3774326, “New derivative of 2-(2,4-dihydroxyphenyl)thieno-1,3-thiazin-4-one (BChTT) elicits antiproliferative effect via p38-mediated cell cycle arrest in cancer cells” (Bioorg Med Chem, 2016).
Activity calls are given as the source filed them. The calls are words filed in the database; no cut-off is given here.

Assays:
C6 [1] = assay: Induction of cell cycle arrest in rat C6 cells assessed as accumulation at G0/G1 phase after 24 to 48 hrs by propidium iodide staining-based flow cytometric analysis; format: functional
[2] = molecular target: T1, Mitogen-activated protein kinase; ERK1/ERK2 (Homo sapiens) (UniProt P27361+P28482); assay: Effect on ERK1/2 phosphorylation in human A549 cells at 10 to 50 uM after 0.5 to 24 hrs by Western blot analysis; format: cell-based
T1 sequence (P27361 whole entry, looked up): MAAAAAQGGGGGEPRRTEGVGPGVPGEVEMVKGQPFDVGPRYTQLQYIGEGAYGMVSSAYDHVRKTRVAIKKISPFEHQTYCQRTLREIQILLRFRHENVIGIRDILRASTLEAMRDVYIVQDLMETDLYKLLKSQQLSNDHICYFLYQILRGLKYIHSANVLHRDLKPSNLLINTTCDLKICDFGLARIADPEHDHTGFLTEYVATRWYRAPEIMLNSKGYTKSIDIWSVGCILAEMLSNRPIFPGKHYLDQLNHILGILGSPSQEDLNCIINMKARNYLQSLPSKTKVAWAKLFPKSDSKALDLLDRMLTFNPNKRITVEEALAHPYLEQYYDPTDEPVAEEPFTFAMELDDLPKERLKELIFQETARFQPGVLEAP
T1 sequence (P28482 whole entry, looked up): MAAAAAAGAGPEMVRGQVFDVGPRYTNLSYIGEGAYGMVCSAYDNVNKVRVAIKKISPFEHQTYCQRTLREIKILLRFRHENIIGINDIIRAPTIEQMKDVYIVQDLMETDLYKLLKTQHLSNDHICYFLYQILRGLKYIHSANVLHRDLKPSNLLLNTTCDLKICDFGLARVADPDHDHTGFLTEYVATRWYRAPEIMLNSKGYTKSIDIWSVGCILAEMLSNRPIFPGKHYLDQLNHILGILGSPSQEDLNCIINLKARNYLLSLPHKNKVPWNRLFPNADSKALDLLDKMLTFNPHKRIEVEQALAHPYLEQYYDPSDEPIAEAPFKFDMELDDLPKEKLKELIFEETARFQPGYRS

A549 [3] = assay: Decrease in cyclin D1 expression in human A549 cells at 50 uM after 3 to 24 hrs by Western blot analysis; format: functional, cell-based
A549 [4] = assay: Induction of cell cycle arrest in human A549 cells assessed as decrease in cell level at G2M phase after 24 to 48 hrs by propidium iodide staining-based flow cytometric analysis; format: functional
C6 [5] = assay: Decrease in cyclin D1 expression in rat C6 cells at 50 uM after 0.5 to 24 hrs by Western blot analysis; format: functional, cell-based
A549 [6] = assay: Induction of cell cycle arrest in human A549 cells assessed as accumulation at G0/G1 phase after 24 to 48 hrs by propidium iodide staining-based flow cytometric analysis; format: functional
[7] = Cytotoxicity against rat FaO cells assessed as cell viability at 10 to 100 uM after 24 hrs by LDH assay; format: cell-based
HT-29 [8] = assay: Effect on c-myc expression in human HT-29 cells at 10 to 50 uM after 0.5 to 24 hrs by Western blot analysis; format: functional, cell-based
HT-29 [9] = assay: Inhibition of DNA synthesis in human HT-29 cells assessed as BrdU incorporation after 48 hrs by ELISA; format: functional, cell-based
HT-29 [10] = assay: Induction of cell cycle arrest in human HT-29 cells assessed as accumulation at G0/G1 phase at 50 uM after 24 to 48 hrs by propidium iodide staining-based flow cytometric analysis; format: functional
[11] = molecular target: T1, Mitogen-activated protein kinase; ERK1/ERK2 (Homo sapiens); assay: Effect on ERK1/2 phosphorylation in human HT-29 cells at 10 to 50 uM after 0.5 to 24 hrs by Western blot analysis; format: cell-based
A549 [12] = assay: Induction of cell cycle arrest in human A549 cells assessed as decrease in cell level at S phase after 24 to 48 hrs by propidium iodide staining-based flow cytometric analysis; format: functional
[13] = Cytotoxicity against rat OLN93 cells assessed as cell viability at 10 to 100 uM after 24 hrs by LDH assay; format: cell-based
C6 [14] = assay: Increase in phosphorylated p38 level in rat C6 cells at 10 to 50 uM after 24 hrs by Western blot analysis; format: cell-based
C6 [15] = assay: Increase in phosphorylated p38 level in rat C6 cells after 0.5 to 3 hrs by Western blot analysis; format: cell-based
HT-29 [16] = assay: Induction of cell cycle arrest in human HT-29 cells assessed as decrease in cell level at G2M phase after 24 to 48 hrs by propidium iodide staining-based flow cytometric analysis; format: functional
HT-29 [17] = assay: Induction of cell cycle arrest in human HT-29 cells assessed as decrease in cell level at S phase after 24 to 48 hrs by propidium iodide staining-based flow cytometric analysis; format: functional
C6 [18] = assay: Antiproliferative activity against rat C6 cells at 25 to 50 uM after 48 hrs by MTT assay in presence of p38 siRNA; format: functional, cell-based
A549 [19] = assay: Effect on c-myc expression in human A549 cells at 10 to 50 uM after 0.5 to 24 hrs by Western blot analysis; format: functional, cell-based
HT-29 [20] = assay: Decrease in cyclin D1 expression in human HT-29 cells at 50 uM after 3 to 24 hrs by Western blot analysis; format: functional, cell-based
HT-29 [21] = assay: Antiproliferative activity against human HT-29 cells after 96 hrs by MTT assay; format: functional, cell-based
[22] = molecular target: T2, MAP kinase p38 (Homo sapiens) (UniProt O15264+Q15759+Q16539+P53778); assay: Increase in phosphorylated p38 level in human A549 cells at 10 to 50 uM after 24 hrs by Western blot analysis; format: cell-based
[23] = molecular target: T2, MAP kinase p38 (Homo sapiens); assay: Increase in phosphorylated p38 level in human A549 cells after 0.5 hrs by Western blot analysis; format: cell-based
C6 [24] = assay: Inhibition of DNA synthesis in rat C6 cells assessed as BrdU incorporation after 48 hrs by ELISA; format: functional, cell-based
[25] = molecular target: Mitogen-activated protein kinase 1 and 3 (ERK2 and ERK1) (Rattus norvegicus) (UniProt P63086+P21708); assay: Effect on ERK1/2 phosphorylation in rat C6 cells at 10 to 50 uM after 0.5 to 24 hrs by Western blot analysis; format: cell-based
Chain of Mitogen-activated protein kinase 1 and 3 (ERK2 and ERK1) (Rattus norvegicus) (P21708 whole entry, looked up): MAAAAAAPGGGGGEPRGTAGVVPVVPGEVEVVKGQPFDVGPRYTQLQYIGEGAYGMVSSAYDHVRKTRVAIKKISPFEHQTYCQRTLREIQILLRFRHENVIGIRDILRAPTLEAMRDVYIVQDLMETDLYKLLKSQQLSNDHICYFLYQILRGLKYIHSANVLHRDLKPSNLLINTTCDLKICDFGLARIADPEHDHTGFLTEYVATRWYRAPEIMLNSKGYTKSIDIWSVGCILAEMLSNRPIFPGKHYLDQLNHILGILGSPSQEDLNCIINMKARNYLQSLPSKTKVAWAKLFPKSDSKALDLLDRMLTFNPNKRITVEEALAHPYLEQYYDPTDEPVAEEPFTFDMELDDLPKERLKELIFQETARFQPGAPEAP
Chain of Mitogen-activated protein kinase 1 and 3 (ERK2 and ERK1) (Rattus norvegicus) (P63086 whole entry, looked up): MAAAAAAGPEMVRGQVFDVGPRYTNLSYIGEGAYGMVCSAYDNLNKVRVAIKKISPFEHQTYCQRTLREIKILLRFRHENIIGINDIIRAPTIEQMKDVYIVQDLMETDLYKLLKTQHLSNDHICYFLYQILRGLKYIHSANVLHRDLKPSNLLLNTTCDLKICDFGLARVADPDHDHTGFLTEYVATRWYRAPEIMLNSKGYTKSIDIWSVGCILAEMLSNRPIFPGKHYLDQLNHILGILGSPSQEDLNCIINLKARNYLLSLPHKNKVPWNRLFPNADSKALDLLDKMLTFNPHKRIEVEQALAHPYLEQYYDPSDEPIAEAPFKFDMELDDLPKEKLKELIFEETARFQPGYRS

C6 [26] = assay: Antiproliferative activity against rat C6 cells after 96 hrs by MTT assay; format: functional, cell-based
A549 [27] = assay: Inhibition of DNA synthesis in human A549 cells assessed as BrdU incorporation after 48 hrs by ELISA; format: functional, cell-based
[28] = molecular target: T2, MAP kinase p38 (Homo sapiens); assay: Increase in phosphorylated p38 level in human HT-29 cells after 0.5 to 24 hrs by Western blot analysis; format: cell-based
C6 [29] = assay: Induction of cell cycle arrest in rat C6 cells assessed as decrease in cell level at S phase after 24 to 48 hrs by propidium iodide staining-based flow cytometric analysis; format: functional
A549 [30] = assay: Effect on CREB expression in human A549 cells at 10 to 50 uM after 0.5 to 24 hrs by Western blot analysis; format: functional, cell-based
C6 [31] = assay: Effect on c-myc expression in rat C6 cells at 10 to 50 uM after 0.5 to 24 hrs by Western blot analysis; format: functional, cell-based
C6 [32] = assay: Effect on CREB expression in rat C6 cells at 10 to 50 uM after 0.5 to 24 hrs by Western blot analysis; format: functional, cell-based
C6 [33] = assay: Induction of cell cycle arrest in rat C6 cells assessed as decrease in cell level at G2M phase after 24 to 48 hrs by propidium iodide staining-based flow cytometric analysis; format: functional
A549 [34] = assay: Antiproliferative activity against human A549 cells after 96 hrs by MTT assay; format: functional, cell-based
HT-29 [35] = assay: Effect on CREB expression in human HT-29 cells at 10 to 50 uM after 0.5 to 24 hrs by Western blot analysis; format: functional, cell-based
[36] = Cytotoxicity against rat FaO cells assessed as cell viability at 100 uM after 24 hrs by LDH assay; format: cell-based
[37] = Cytotoxicity against HSF assessed as cell viability at 10 to 100 uM after 24 hrs by LDH assay; conditions: human

CC(C)(C)c1cc2nc(-c3cc(Cl)c(O)cc3O)sc(=O)c2s1
Activity (C6 [1]): Dose-dependent effect | Activity [2]: inactive | Activity (A549 [3]): Active | Activity (A549 [4]): Dose-dependent effect | Activity (C6 [5]): Active | Activity (A549 [6]): Dose-dependent effect | Activity [7]: Non-toxic | Activity (HT-29 [8]): inactive | inhibition (HT-29 [9]): Dose-dependent effect | Activity (HT-29 [10]): Dose-dependent effect | Activity [11]: inactive | Activity (A549 [12]): Dose-dependent effect | Activity [13]: Non-toxic | Activity (C6 [14]): inactive | Activity (C6 [15]): Dose-dependent effect | Activity (HT-29 [16]): Dose-dependent effect | Activity (HT-29 [17]): Dose-dependent effect | Activity (C6 [18]): inactive | Activity (A549 [19]): inactive | Activity (HT-29 [20]): Active | Activity (HT-29 [21]): Dose-dependent effect | IC50 (HT-29 [21]; HT-29, 96 h): 38.6 µM | Activity [22]: inactive | Activity [23]: Dose-dependent effect | inhibition (C6 [24]): Dose-dependent effect | Activity [25]: inactive | Activity (C6 [26]): Dose-dependent effect | IC50 (C6 [26]; C6, 96 h): 87.4 µM | inhibition (A549 [27]): Dose-dependent effect | Activity [28]: Dose-dependent effect | Activity (C6 [29]): Dose-dependent effect | Activity (A549 [30]): inactive | Activity (C6 [31]): inactive | Activity (C6 [32]): inactive | Activity (C6 [33]): Dose-dependent effect | Activity (A549 [34]): Dose-dependent effect | IC50 (A549 [34]; A549, 96 h): 32.9 µM | Activity (HT-29 [35]): inactive | Activity [36]: Toxic | Activity [37]: Non-toxic
